Where two headings read alike, the source gives them in different places.
What was measured:
[1] = tested on: L. major; experiment: L. major footpad infection in Balb/c mice; format: in vivo; settings: 80 mg/kg/day intraperitoneally in corn oil for seven days
Protocol: Compound 1 dissolved in corn oil was administered intraperitoneally to Balb/c mice (Ball State University colony) at 80 mg/kg/day for seven days beginning one day prior to injection of 5×10^6 L. major promastigotes in medium 199 in the hind foot. Control mice received an equivalent amount of corn oil and L. major. Beginning on day 8, the thickness of the footpads top to bottom was measured using a vernier caliper. Footpad swelling indicates progression of the disease. The percent increase in footpad size was calculated as: [formula]
The percent increase in footpad size is for triplicate mice in the control group and duplicate mice in the treated group.

[2] = Solubility in dosing vehicle; format: physicochemical; settings: 10 percent emulphor 620 in Dulbecco's phosphate buffered saline
Protocol: CY was dissolved in isotonic saline, 20 and 21 were dissolved in corn oil, and 1 was dissolved in 10 percent emulphor 620 in Dulbecco's phosphate buffered saline. […] Starting 1 day after tumor implantation, drugs were administered interperitoneally (IP) at the doses given in Table X. CY and compounds 20 and 21 were given once daily for 8 days. Compound 1 was administered in three doses per day at lower dose levels, and the animals were treated for 7 days. On day 10, tumor masses, percent inhibition of tumor growth, and weight changes were determined.

[3] = tested on: K/1 = ras^K Transformed NRKE Cells; settings: for Differential Index K/1: K/1 = ras^K transformed NRKE cells, compared with normal NRKE cells
[4] = tested on: K/1-NRKE tumor (ras^K-transformed NRKE cells)
[5] = tested on: K/1 = ras^K Transformed NRKE Cells; experiment: cells; settings: Rattus norvegicus
[6] = tested on: H/1.2 = ras^H Transformed NRKE Cells; experiment: cells; settings: Rattus norvegicus
[7] = tested on: 3LL = Lewis Lung Carcinoma Cells; experiment: cells; settings: Mus musculus
[8] = in vitro
[9] = tested on: Leukemia cell lines; experiment: NCI in vitro anticancer screen (SRB), leukemia subpanel; settings: 48 hours exposure; average percent growth over the cell lines
Protocol: (§1) Compounds chosen for the program are initially tested in an in vitro anticancer screen. A total of fifty-five human tumor cell lines, derived from nine cancer types (lung, colon, melanoma, renal, ovarian, brain, prostate, breast and leukemia), are used in this screen. The tumor cells are inoculated over a series of standard 96-well microtiter plates on day 0. These cells are then preincubated on the microtiter plates for 24 hours. The test compounds are added to the wells in five 10-fold dilutions starting from the highest soluble concentration. Each compound is tested against every cell line in the panel. The compounds are incubated for 48 hours with the tumor cell lines. At the termination of the assay, the cells are fixed in situ, washed, and dried. Sulforhodamine B (SRB), a pink anionic dye that binds to the basic amino acids of trichloroacetic acid-fixed cells, is added. The cells are washed again, and the remaining dye is a function of the adherent cell mass. The bound stain is solubilized and measured spectrophotometrically. The data are entered from automatic reading devices into a computer for subsequent storage and analysis.
(§2) The measured effect of each test compound on the cell lines is calculated according to one or the other of the following two expressions:
(§3) If (Mean ODtest−Mean ODtzero)□0, then PG=100×(Mean ODtest−Mean ODtzero)/(Mean ODctrl−Mean ODtzero);
(§4) If (Mean ODtest−Mean ODtzero)<0, then PG=100×(Mean ODtest−Mean ODtzero)/Meantzero;
(§5) First, a data sheet is provided which lists, for each cell line, the Mean ODtzero, the Mean ODctrl, the Mean ODtest for each of the five concentrations, the calculated PGs for each concentration, and the response parameters G150, TGI, and LC50.
(§6) Third, mean graphs at each of the principal response parameters (GI50, TGI, and LC50) are provided. […] Since the bar scale is logarithmic, a bar two units to the right implies the compound achieved the response parameter (e.g., GI50) for the cell line at a concentration 1/100 the mean concentration required over all cell lines, and thus the cell line is unusually sensitive to that compound. Bars extending to the left correspondingly imply sensitivity less than the mean. Thus, the mean graphs facilitate visual scanning of data for potential patterns of selectivity for particular cell lines or for particular subpanels with respect to a selected response parameter.

[10] = tested on: Melanoma cell lines; experiment: NCI in vitro anticancer screen (SRB), melanoma subpanel; settings: 48 hours exposure; average percent growth over the cell lines
Protocol: as §1, §2, §3, §4, §5, §6

[11] = tested on: CNS Cancer cell lines; experiment: NCI in vitro anticancer screen (SRB), CNS cancer subpanel; settings: 48 hours exposure; average percent growth over the cell lines
Protocol: as §1, §2, §3, §4, §5, §6

[12] = tested on: Colon Cancer cell lines; experiment: NCI in vitro anticancer screen (SRB), colon cancer subpanel; settings: 48 hours exposure; average percent growth over the cell lines
Protocol: as §1, §2, §3, §4

[13] = tested on: Renal Cancer cell lines; experiment: NCI in vitro anticancer screen (SRB), renal cancer subpanel; settings: 48 hours exposure; average percent growth over the cell lines
Protocol: as §1, §2, §3, §4, §5, §6

[14] = tested on: Breast Cancer cell lines; experiment: NCI in vitro anticancer screen (SRB), breast cancer subpanel; settings: 48 hours exposure; average percent growth over the cell lines
Protocol: as §1, §2, §3, §4

[15] = tested on: Ovarian Cancer cell lines; experiment: NCI in vitro anticancer screen (SRB), ovarian cancer subpanel; settings: 48 hours exposure; average percent growth over the cell lines
Protocol: as §1, §2, §3, §4

[16] = tested on: Prostate Cancer cell lines; experiment: NCI in vitro anticancer screen (SRB), prostate cancer subpanel; settings: 48 hours exposure; average percent growth over the cell lines
Protocol: as §1, §2, §3, §4

[17] = tested on: Non-Small Cell Lung Cancer cell lines; experiment: NCI in vitro anticancer screen (SRB), non-small cell lung cancer subpanel; settings: for Activity (Average PG for highest dose tested) Non-Small Cell Lung Cancer: 48 hours exposure, average percent growth over the cell lines
Protocol: as §1, §2, §3, §4, §5, §6

[18] = NCI toxicity studies, maximum tolerated dose; settings: mouse, in vivo; mice
Protocol: As a result of its performance in an initial and a repeat cancer screen, compound 55 has been selected for in vivo testing. Compound 55 was chosen primarily because of its selectivity for non-small cell lung cancer. To date, toxicity studies have been performed, and the maximum tolerated dose in mice has been determined to be 400 mg/kg.

[19] = tested on: H/1.2 = ras^H Transformed NRKE Cells; settings: H/1.2 = ras^H transformed NRKE cells, compared with normal NRKE cells
[20] = tested on: N/4.2-NRKE transformed by the human ras^N gene; settings: N/4.2 = ras^N transformed NRK cells, compared with normal NRKE cells
[21] = tested on: 3LL = Lewis Lung Carcinoma Cells; settings: 3LL = Lewis lung carcinoma cells, compared with normal NRKE cells
[22] = tested on: N/4.2-NRKE transformed by the human ras^N gene; experiment: cells; settings: N42, read-out: LC50 N/4.2
[23] = tested on: human tumor cells in hollow fibers; experiment: NCI Hollow Fiber Assay for preliminary in vivo testing; settings: combined IP+SC score
Protocol: For these assays, human tumor cells are cultivated in polyvinylidene fluoride (PVDF) hollow fibers, and a sample of each cell line is implanted into each of two physiologic compartments (intraperitoneal and subcutaneous) in mice. Each test mouse receives a total of 6 fibers (3 intraperitoneally and 3 subcutaneously) representing 3 distinct cancer cells lines. Three mice are treated with potential antitumor compounds at each of 2 test doses by the intraperitoneal route using a QD×4 treatment schedule. Vehicle controls consist of 6 mice receiving the compound diluent only. The fiber cultures are collected on the day following the last day of treatment. To assess anticancer effects, viable cell mass is determined for each of the cell lines using a formazan dye (MTT) conversion assay. From this, the % T/C can be calculated using the average optical density of the compound treated samples divided by the average optical density of the vehicle controls. In addition, the net increase in cell mass can be determined for each sample as a sample of fiber cultures are assessed for viable cell mass on the day of implantation into mice. Thus, the cytostatic and cytocidal capacities of the test compound can be assessed.
This represents a total of 4 experiments since each experiment contains 3 cell lines. […]

[24] = found by other investigators; cited from earlier work
[25] = 120 h, read-out: LC50 3LL, Table VII, concentration giving 50% cell kill, 5 days exposure
[26] = read-out: LC50 3LL, second table headed TABLE VIII

SMILES	CC50 [7, 25] [nM]	CC50 ([7]; read-out: LC50 3LL, Table VIII) [nM]	CC50 [7, 26] [nM]	Activity (Average PG for highest dose tested) Leukemia [9]	Activity (Average PG for highest dose tested) Melanoma [10]	Activity (Average PG for highest dose tested) CNS Cancer [11]	Activity (Average PG for highest dose tested) Colon Cancer [12]	Activity (Average PG for highest dose tested) Renal Cancer [13]	Activity (Average PG for highest dose tested) Breast Cancer [14]	Activity (Average PG for highest dose tested) Ovarian Cancer [15]	Activity (Average PG for highest dose tested) Prostate Cancer [16]	Activity (Average PG for highest dose tested) Non-Small Cell Lung Cancer [17]	Differential Index K/1 [3]	Differential Index H/1.2 [19]	Differential Index N/4.2 [20]	Differential Index 3LL [21]	other results
COC(=O)c1nc(-c2ccc3c(n2)C(=O)C(NC(C)=O)=CC3=O)c2[nH]c3ccccc3c2c1C [Compound 1, 7-N-Acetyllavendamycin Methyl Ester]	> 33000	< 33000	> 33000	+36.3%	+80.3%	+60.2%	+80.0%	+63.0%	+47.9%	+70.0%	+89.5%	+42.6%	–	–	–	–	adverse effect of administration as measured by weight loss (in words) [1]: did not. appear to be adversely affected; solubility in vehicle (in words) [2]: poorly soluble; selective toxicity against ras^K oncogene bearing tumor cells as compared to the normal, non-transformed cells ([3]; LC50 NRKE divided by LC50 K/1): 9 fold; CC50 ([3]; rat, 5 days): 100 nM; Number Dead Number Treated ([4]; 10 Mg/Kg/Day IP in three doses per day for 7 days): 0/7; Number Dead Number Treated ([4]; 30 Mg/Kg/Day IP in three doses per day for 7 days): 0/7; Number Dead Number Treated ([4]; 100 Mg/Kg/Day IP in three doses per day for 7 days): 0/7; toxicity in tumor-bearing nude mice (in words) ([4]; mouse, in vivo): little or no toxicity; tumor growth inhibition in vivo (in words) ([4]; summary of Table X): excellent tumor growth inhibition; CC50 ([5]; 120 h, read-out: LC50 K/1): 100 nM; CC50 ([5]; read-out: LC50 K/1): 100 nM; CC50 ([6]; 120 h, read-out: LC50 H/1.2): 700 nM; CC50 ([6]; read-out: LC50 H/1.2): 700 nM; CC50 at 5 days ([8]; rat, LC50 NRKE): 900 nM
COC(=O)c1nc(-c2ccc3c(n2)C(=O)C(N)=CC3=O)c2[nH]c3ccccc3c2c1C [Compound 55, lavendamycin methyl ester, reference compound]	500	500	500	+30.0%	−53.0%	−39.3%	−20.0%	−63.8%	−43.8%	−43.5%	−31.0%	−60.8%	3.33	0.9	1.67	0.4	MTD [18]: 400 mg/kg; selective toxicity (Table IX) ([3]; ras^K cells versus normal cells): 0.5; CC50 ([5]; 120 h, read-out: LC50 K/1, Table VII, concentration giving 50% cell kill, 5 days exposure): 200 nM; CC50 ([5]; read-out: LC50 K/1, Table VIII): 200 nM; CC50 ([5]; read-out: LC50 K/1, Table XV (Example 51)): 30 nM; CC50 ([5]; read-out: LC50 K/1, second table headed TABLE VIII): 200 nM; CC50 ([6]; 120 h, read-out: LC50 H/1.2, Table VII, concentration giving 50% cell kill, 5 days exposure): 100 nM; CC50 ([6]; read-out: LC50 H/1.2, Table VIII): 100 nM; CC50 ([6]; read-out: LC50 H/1.2, Table XV (Example 51)): 110 nM; CC50 ([6]; read-out: LC50 H/1.2, second table headed TABLE VIII): 100 nM; CC50 [22]: 60 nM; CC50 ([7]; read-out: LC50 3LL, Table XV (Example 51)): 250 nM; CC50 at 5 days [8]: 100 nM; Selectivity: sensitivity of one of the seven non-small cell lung cancer cell lines relative to average sensitivity of the fifty-five cell lines ([17]; at GI50, TGI and/or LC50): ~100 times more sensitive to compound 55 than the
COC(=O)c1nc(-c2ccc3c(n2)C(=O)C(N)=C(Cl)C3=O)c2[nH]c3ccccc3c2c1C [Compound 58, 6-Chlorolavendamycin methyl ester]	–	–	–	−14.6%	−86.1%	−52.2%	−84.9%	−73.7%	−58.7%	−39.3%	−63.0%	−69.3%	1.40	1.07	1.09	0.54	Total Score [23]: 14
Cc1c(C(=O)O)nc(-c2ccc3c(n2)C(=O)C(N)=CC3=O)c2[nH]c3ccccc3c12 [lavendamycin, Lavendamycin]	–	–	–	–	–	–	–	–	–	–	–	–	–	–	–	–	dose that is lethal [24]: 100 mg/kg/day

— patent US6444684B1 (priority 1993, dated 2002)
